Test results: ChEMBL document CHEMBL3632525, “Decorated 6,6,7,7-tetrahydro-1H,1H-2,3-biindole scaffold as promising candidate for recognition of the CDK2 allosteric site” (Medchemcomm, 2015)
Active and inactive are the calls of the source. The rule behind the calls is not given here.

How the values were obtained:
Vero [1] = test: Cytotoxicity against African green monkey Vero cells assessed as reduction of cell viability at 80 to 100 uM by CellTiter-Glo luminescent assay; assay type: cell-based; conditions: chlorocebus sabaeus, TDE = time-dependent effect
HEp-2 [2] = test: Cytotoxicity against human Hep2 cells assessed as reduction of cell viability at 80 to 100 uM by CellTiter-Glo luminescent assay; assay type: functional, cell-based; conditions: TDE = time-dependent effect
HEK-293T [3] = test: Cytotoxicity against HEK293T cells assessed as reduction of cell viability at 80 to 100 uM by CellTiter-Glo luminescent assay; assay type: functional, cell-based; conditions: Homo sapiens, TDE = time-dependent effect
Vero [4] = test: Cytotoxicity against African green monkey Vero cells assessed as reduction of cell viability after 24 to 72 hrs by CellTiter-Glo luminescent assay; assay type: cell-based; conditions: chlorocebus sabaeus
HEp-2 [5] = test: Cytotoxicity against human Hep2 cells assessed as reduction of cell viability after 24 to 72 hrs by CellTiter-Glo luminescent assay; assay type: functional, cell-based
HEK-293T [6] = test: Cytotoxicity against HEK293T cells assessed as reduction of cell viability after 24 to 72 hrs by CellTiter-Glo luminescent assay; assay type: functional, cell-based; conditions: Homo sapiens
Vero [7] = test: Inhibition of CDK2 phosphorylation in African green monkey Vero cells at 100 uM after 24 hrs by Western blot analysis relative to control; assay type: cell-based; conditions: Chlorocebus sabaeus
[8] = molecular target: T1, Cyclin-dependent kinase 2 (Homo sapiens, UniProt P24941); test: Inhibition of CDK2 phosphorylation in human Hep2 cells at 100 uM after 24 hrs by Western blot analysis relative to control; assay type: cell-based; conditions: HEp-2
[9] = molecular target: T1, Cyclin-dependent kinase 2; test: Inhibition of CDK2 phosphorylation in HEK293T cells at 100 uM after 24 hrs by Western blot analysis relative to control; assay type: cell-based; conditions: HEK-293T
Vero [10] = test: Inhibition of cyclin E phosphorylation in African green monkey Vero cells at 100 uM after 24 hrs by Western blot analysis relative to control; assay type: cell-based; conditions: Chlorocebus sabaeus
[11] = molecular target: G1/S-specific cyclin-E1 (Homo sapiens) (UniProt P24864); test: Inhibition of cyclin E phosphorylation in human Hep2 cells at 100 uM after 24 hrs by Western blot analysis relative to control; assay type: cell-based; conditions: HEp-2
Chain of G1/S-specific cyclin-E1 (Homo sapiens) (P24864 whole entry): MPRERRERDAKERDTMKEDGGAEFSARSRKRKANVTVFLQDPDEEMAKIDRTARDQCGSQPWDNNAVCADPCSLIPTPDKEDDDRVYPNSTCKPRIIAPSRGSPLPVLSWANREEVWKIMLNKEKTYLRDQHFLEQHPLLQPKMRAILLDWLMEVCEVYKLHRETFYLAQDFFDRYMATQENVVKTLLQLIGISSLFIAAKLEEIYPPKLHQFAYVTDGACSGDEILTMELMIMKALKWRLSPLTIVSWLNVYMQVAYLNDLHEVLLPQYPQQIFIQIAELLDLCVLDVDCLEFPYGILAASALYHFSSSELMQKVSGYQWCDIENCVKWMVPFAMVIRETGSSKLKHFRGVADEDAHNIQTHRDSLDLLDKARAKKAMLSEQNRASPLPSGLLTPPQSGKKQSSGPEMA

[12] = molecular target: G1/S-specific cyclin-E1 (Homo sapiens) (UniProt P24864); test: Inhibition of cyclin E phosphorylation in HEK293T cells at 100 uM after 24 hrs by Western blot analysis relative to control; assay type: cell-based; conditions: HEK-293T
Vero [13] = test: Inhibition of CDK2/Cyclin E in African green monkey Vero cells assessed as reduction of hyperphosphorylated pRB expression at 100 uM after 24 hrs by Western blot analysis relative to control; assay type: cell-based; conditions: Chlorocebus sabaeus
[14] = molecular target: T2, Cyclin-dependent kinase 2/cyclin E1 (Homo sapiens) (UniProt P24864+P24941); test: Inhibition of CDK2/Cyclin E in human Hep2 cells assessed as reduction of hyperphosphorylated pRB expression at 100 uM after 24 hrs by Western blot analysis relative to control; assay type: cell-based; conditions: HEp-2
[15] = molecular target: T2, Cyclin-dependent kinase 2/cyclin E1 (Homo sapiens); test: Inhibition of CDK2/Cyclin E in HEK293T cells assessed as reduction of hyperphosphorylated pRB expression at 100 uM after 24 hrs by Western blot analysis relative to control; assay type: cell-based; conditions: HEK-293T
[16] = molecular target: T2, Cyclin-dependent kinase 2/cyclin E1 (Homo sapiens); test: Inhibition of CDK2/Cyclin E in HEK293T cells assessed as reduction of EGF-stimulated E2F pathway after 24 hrs by dual-Glo luciferase reporter gene assay relative to control; assay type: cell-based; conditions: HEK-293T
[17] = molecular target: T1, Cyclin-dependent kinase 2; test: Binding affinity to CDK2 allosteric site (unknown origin)

inhibition [8]: Active
inhibition [9]: Active
inhibition [11]: Active
inhibition [12]: Active
inhibition [14]: Active
inhibition [15]: Active
inhibition [16]: Dose-dependent effect
IC50 [17]: > 91 µM
SMILES: Cc1[nH]c2c(c1C1(C)NC3=C(C(=O)CC(c4ccccc4)C3)C1=O)C(=O)CC(c1ccccc1)C2 (configuration not stated)
Activity (Vero [1]): tde
Activity (HEp-2 [2]): tde
Activity (HEK-293T [3]): tde
Activity (Vero [4]): Dose-dependent effect
Activity (HEp-2 [5]): Dose-dependent effect
Activity (HEK-293T [6]): Dose-dependent effect
inhibition (Vero [7]): Active
inhibition (Vero [10]): Active
inhibition (Vero [13]): Active
